Test results from ChEMBL document CHEMBL1149122 (J Med Chem, 2004).

Legend:
[1] = biological target: T1, Amine oxidase [flavin-containing] B (Homo sapiens, UniProt P27338); experiment: Binding affinity towards monoamine oxidase B activity was measured using a benzylamine assay
T1 sequence (P27338 whole entry): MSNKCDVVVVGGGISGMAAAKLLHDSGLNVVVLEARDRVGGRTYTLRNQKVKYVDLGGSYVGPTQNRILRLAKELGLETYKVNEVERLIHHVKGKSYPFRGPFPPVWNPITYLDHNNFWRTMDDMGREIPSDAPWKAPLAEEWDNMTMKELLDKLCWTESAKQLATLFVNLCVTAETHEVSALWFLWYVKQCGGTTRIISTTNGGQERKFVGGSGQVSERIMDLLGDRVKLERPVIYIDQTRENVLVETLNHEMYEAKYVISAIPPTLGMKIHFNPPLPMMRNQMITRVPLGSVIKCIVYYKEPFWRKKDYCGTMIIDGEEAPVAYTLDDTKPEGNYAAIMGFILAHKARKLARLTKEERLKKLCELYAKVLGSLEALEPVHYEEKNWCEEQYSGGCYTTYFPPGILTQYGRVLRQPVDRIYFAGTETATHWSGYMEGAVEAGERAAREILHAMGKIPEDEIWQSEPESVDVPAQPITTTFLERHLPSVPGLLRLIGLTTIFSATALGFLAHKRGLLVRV

[2] = biological target: T2, Amine oxidase [flavin-containing] A (Homo sapiens, UniProt P21397); experiment: Binding affinity towards monoamine oxidase A activity was measured using a kynuramine assay
T2 sequence (P21397 whole entry): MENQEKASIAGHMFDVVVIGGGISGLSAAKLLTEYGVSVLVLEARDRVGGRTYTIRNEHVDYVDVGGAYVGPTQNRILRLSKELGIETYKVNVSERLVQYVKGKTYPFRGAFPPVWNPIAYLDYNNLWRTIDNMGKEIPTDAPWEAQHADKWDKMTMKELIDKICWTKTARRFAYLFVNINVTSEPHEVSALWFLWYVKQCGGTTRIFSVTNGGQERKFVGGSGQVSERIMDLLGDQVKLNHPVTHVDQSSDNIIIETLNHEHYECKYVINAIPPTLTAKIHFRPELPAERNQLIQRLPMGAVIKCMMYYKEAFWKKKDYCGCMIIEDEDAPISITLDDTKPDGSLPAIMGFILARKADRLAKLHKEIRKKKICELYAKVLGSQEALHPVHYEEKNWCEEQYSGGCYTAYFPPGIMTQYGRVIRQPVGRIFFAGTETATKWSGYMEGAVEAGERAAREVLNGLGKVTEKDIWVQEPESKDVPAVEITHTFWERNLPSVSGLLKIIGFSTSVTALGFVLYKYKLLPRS

[3] = biological target: T3, Amine oxidase [flavin-containing] A (Rattus norvegicus, UniProt P21396); experiment: Inhibitory concentration towards monoamine oxidase A in rat brain was measured; format: tissue-based
T3 sequence (P21396 whole entry): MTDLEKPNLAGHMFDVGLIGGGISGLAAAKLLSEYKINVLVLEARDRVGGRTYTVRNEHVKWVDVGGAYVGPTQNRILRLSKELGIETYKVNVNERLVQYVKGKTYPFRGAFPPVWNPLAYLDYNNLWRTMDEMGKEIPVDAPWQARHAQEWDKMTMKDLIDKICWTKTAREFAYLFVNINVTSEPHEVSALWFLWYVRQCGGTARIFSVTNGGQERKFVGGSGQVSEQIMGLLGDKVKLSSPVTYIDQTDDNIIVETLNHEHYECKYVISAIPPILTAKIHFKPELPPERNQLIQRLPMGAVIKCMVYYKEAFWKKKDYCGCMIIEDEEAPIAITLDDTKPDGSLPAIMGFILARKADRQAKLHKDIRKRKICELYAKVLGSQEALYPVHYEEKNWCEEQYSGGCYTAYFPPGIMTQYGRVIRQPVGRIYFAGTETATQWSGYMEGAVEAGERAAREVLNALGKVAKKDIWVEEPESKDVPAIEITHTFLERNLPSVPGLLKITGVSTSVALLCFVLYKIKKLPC

[4] = biological target: T4, Amine oxidase [flavin-containing] B (Rattus norvegicus, UniProt P19643); experiment: Inhibitory concentration towards monoamine oxidase B in rat brain was measured; format: tissue-based
T4 sequence (P19643 whole entry): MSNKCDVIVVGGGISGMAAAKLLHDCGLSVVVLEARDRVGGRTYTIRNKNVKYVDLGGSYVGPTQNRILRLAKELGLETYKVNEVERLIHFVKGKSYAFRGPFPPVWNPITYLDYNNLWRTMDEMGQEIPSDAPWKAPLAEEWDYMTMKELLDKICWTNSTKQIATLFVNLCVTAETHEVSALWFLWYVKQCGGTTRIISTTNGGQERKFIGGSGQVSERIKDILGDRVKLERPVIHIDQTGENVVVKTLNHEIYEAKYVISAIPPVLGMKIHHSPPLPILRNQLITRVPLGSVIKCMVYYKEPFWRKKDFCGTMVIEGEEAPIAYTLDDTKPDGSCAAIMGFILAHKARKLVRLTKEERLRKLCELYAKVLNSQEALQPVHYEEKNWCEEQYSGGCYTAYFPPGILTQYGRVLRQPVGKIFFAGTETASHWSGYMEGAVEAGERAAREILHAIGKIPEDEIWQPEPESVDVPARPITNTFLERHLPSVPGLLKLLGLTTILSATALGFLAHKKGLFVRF

| SMILES | Ki [1] [µM] | Ki [2] [µM] | IC50 [3] [µM] | IC50 [4] [µM] |
| --- | --- | --- | --- | --- |
| C#CCN[C@@H]1CCc2ccc(O)cc21 | 17 | 1.9 |  |  |
| C#CCN(C)[C@@H]1CCc2ccccc21 | 0.6 | 4.9 |  |  |
| C#CCN[C@@H]1CCc2ccc(OC(=O)N(C)CC)cc21 [LADOSTIGIL] | 213 | 227 | 85 | 120 |
